The target in test [1] is T1, glucocorticoid receptors (GR) in SW1353/MMTV-5 cells (Homo sapiens, UniProt P04150).
T1 construct: contains endogenous glucocorticoid receptors; endogenous in cells; host or cells: SW1353/MMTV-5 (human chondrosarcoma, stably transfected with the pMAMneo-Luc reporter only)
T1 sequence (P04150 1-777): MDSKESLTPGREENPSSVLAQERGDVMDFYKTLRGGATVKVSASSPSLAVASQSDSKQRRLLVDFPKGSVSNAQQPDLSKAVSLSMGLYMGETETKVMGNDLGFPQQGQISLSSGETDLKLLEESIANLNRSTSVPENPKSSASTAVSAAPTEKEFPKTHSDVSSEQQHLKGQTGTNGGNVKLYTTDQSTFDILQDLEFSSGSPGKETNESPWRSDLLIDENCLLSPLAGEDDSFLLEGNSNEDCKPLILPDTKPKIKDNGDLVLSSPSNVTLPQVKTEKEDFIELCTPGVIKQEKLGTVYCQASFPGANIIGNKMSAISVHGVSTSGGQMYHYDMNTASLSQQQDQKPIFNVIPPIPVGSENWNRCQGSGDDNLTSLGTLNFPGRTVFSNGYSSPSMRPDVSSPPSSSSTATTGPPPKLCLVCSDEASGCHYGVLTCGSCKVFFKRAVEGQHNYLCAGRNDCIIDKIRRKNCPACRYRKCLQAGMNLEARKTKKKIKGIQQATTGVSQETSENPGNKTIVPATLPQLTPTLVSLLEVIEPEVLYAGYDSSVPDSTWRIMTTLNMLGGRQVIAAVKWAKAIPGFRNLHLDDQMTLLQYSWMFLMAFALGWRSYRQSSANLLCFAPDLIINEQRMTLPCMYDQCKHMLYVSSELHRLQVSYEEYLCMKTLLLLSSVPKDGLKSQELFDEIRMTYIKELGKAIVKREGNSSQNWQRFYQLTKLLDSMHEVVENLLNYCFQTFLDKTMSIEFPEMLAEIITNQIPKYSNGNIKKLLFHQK
Description: GR functional assay using SW1353/MMTV-5 cells (MMTV-luciferase reporter). Type of test: cell-based. How it is done:
SW1353/MMTV-5 is an adherent human chondrosarcoma cell line that contains endogenous glucocorticoid receptors. It was transfected with a plasmid (pMAMneo-Luc) encoding firefly luciferase located behind a glucocorticoid-responsive element (GRE) derived from a viral promoter (long terminal repeat of mouse mammary tumor virus). A stable cell line SW1353/MMTV-5 was selected with geneticin, which was required to maintain this plasmid.
SW1353/MMTV-5 cells were distributed in 96-well plates and incubated in medium (without geneticin) for 24 hrs (in the absence of CO2).

The target in test [2] is T2, Human Recombinant Glucocorticoid Receptor (Homo sapiens, UniProt P04150).
T2 construct: This GR was a full-length steroid hormone receptor likely to be associated with heat-shock and other endogenous proteins; host or cells: baculovirus-infected insect cells
T2 sequence (P04150 1-777): T1 sequence (P04150 1-777)
Description: Glucocorticoid receptor binding displacement assay with 3H-dexamethasone. The following applies: displacement of 2.5 nM 3H-dexamethasone; Ki from IC50 by Cheng-Prusoff; read-out: GR Binding Ki. On the procedure: The source of the receptor was recombinant baculovirus-infected insect cells. This GR was a full-length steroid hormone receptor likely to be associated with heat-shock and other endogenous proteins.
For the Primary Screen, test compounds were tested at 1 μM in duplicate. These compounds were diluted from 10 mM stock in 100% DMSO. After dilution to 100 μM, 5 μl were added to 245 μl assay buffer to obtained 2 μM compound and 2% DMSO.
For the IC50 determinations, test compounds were tested at 6 concentrations in duplicate (concentration range depends on % inhibition binding that was obtained in the Primary Screen). Test compounds were diluted from 10 mM stock in 100% DMSO. The tested solutions were prepared at 2× final assay concentration in 2% DMSO/assay buffer.
All reagents and the assay plate were kept on ice during the addition of reagents. […] After the additions, the incubation mixture was mixed and incubated for 2.5 hrs at 4° C.
After 2.5 hrs incubation, unbound counts were removed with dextran coated charcoal (DCC) as follows: 25 μl of DCC solution (10% DCC in assay buffer) was added to all wells and mixed (total volume 225 μl). The plate was centrifuged at 4000 rpm for 10 minutes at 4° C. 75 μl of the supernatants (i.e.⅓ of total volume) was carefully pipetted into an optiplate. 200 μl of scintillation cocktail were added (Microscint-40, Packard Bioscience. B.V.). The plate was vigorously shaken for approx. 10 minutes and counted on Topcount.
The IC50 values were converted to Ki (the inhibition constant) using the Cheng-Prusoff equation. Test results are presented in Tablel.
Reagents: Assay buffer: 10 mM potassium phosphate buffer pH 7.6 containing 5 mM DTT, 10 mM sodium molybdate, 100 μM EDTA and 0.1% BSA.

Each structure is given as a SMILES string. pKi: −log10 of the molar value.

Broadly, the pKi is the Ki on a negative log10 scale, so that one unit is a factor of ten. `O=S(=O)(c1ccc(N2CCC2)nc1)N1CCC2=Cc3c(cnn3-c3ccc(F)cc3)C[C@]2(COC(F)F)C1` [Example 17, (R)-6-(6-Azetidin-1-ylpyridine-3-sulfonyl)-4a-difluoromethoxymethyl-1-(4-fluorophenyl)-4,4a,5,6,7,8-hexahydro-1H-1,2,6-triazacyclopenta[b]naphthalene]: the results for the pKi in test [1] and in test [2] were 7.30 to 8.00 and less than 9.00, respectively.

Turning to `COC[C@]12Cc3cnn(-c4ccc(F)cc4)c3C=C1CCN(S(=O)(=O)c1ccc(N3CCNCC3)nc1)C2` [Example 18, (R)-1-(4-Fluorophenyl)-4a-methoxymethyl-6-[[6-(1-piperazinyl)-3-pyridinyl]sulfonyl]-1,4,7,8-tetrahydro-1,2,6-triazacyclopenta[b]naphthalene], the pKi in test [1] was less than 7.30; in test [2], less than 9.00.

In the case of `COC[C@]12Cc3cnn(-c4ccc(F)cc4)c3C=C1CCN(S(=O)(=O)c1ccc(N3CCN(C)CC3)nc1)C2` [Example 19, (R)-1-(4-Fluorophenyl)-4a-methoxymethyl-6-[[6-(1-(4-methylpiperazinyl))-3-pyridinyl]sulfonyl]-1,4,7,8-tetrahydro-1,2,6-triazacyclopenta[b]naphthalene], the negative logarithm of the Ki (pKi) in test [1] was less than 7.30; in test [2], less than 9.00.

Consider `COC[C@]12Cc3cnn(-c4ccc(F)cc4)c3C=C1CCN(S(=O)(=O)c1ccc(N3CC[C@@H](F)C3)nc1)C2` [Example 20, (R)-1-(4-Fluorophenyl)-6-[6-((R)-3-fluoropyrrolidin-1-yl)-pyridine-3-sulfonyl]-4a-methoxymethyl-4,4a,5,6,7,8-hexahydro-1H-1,2,6-triaza-cyclopenta[b]naphthalene], for which the values for the pKi in test [1] and in test [2] were 7.30 to 8.00 and less than 9.00, respectively.

As for `COC[C@]12Cc3cnn(-c4ccc(F)cc4)c3C=C1CCN(S(=O)(=O)c1ccc(N3CC[C@@H](O)C3)nc1)C2` [Example 21, (R)-1-{5-[(R)-1-(4-Fluorophenyl)-4a-methoxymethyl-1,4,4a,5,6,7,8-hexahydro-1,2,6-triaza-cyclopenta[b]naphthalene-6-sulfonyl]-pyridin-2-yl}-pyrrolidin-3-ol], the pKi was less than 7.30 in test [1] and less than 9.00 in test [2].

As to `COC[C@]12Cc3cnn(-c4ccc(F)cc4)c3C=C1CCN(S(=O)(=O)c1ccc(N3CC[C@H](O)C3)nc1)C2` [Example 22, (S)-1-{5-[(R)-1-(4-Fluorophenyl)-4a-methoxymethyl-1,4,4a,5,6,7,8-hexahydro-1,2,6-triaza-cyclopenta[b]naphthalene-6-sulfonyl]-pyridin-2-yl}-pyrrolidin-3-ol], the pKi in test [1] was less than 7.30; in test [2], less than 9.00.

On to `COC[C@]12Cc3cnn(-c4ccc(F)cc4)c3C=C1CCN(S(=O)(=O)c1ccc(N3C[C@@H]4C[C@H]3CO4)nc1)C2` [Example 23, (R)-1-(4-Fluorophenyl)-4a-methoxymethyl-6-[(1S,4S)-6-(2-oxa-5-aza-bicyclo[2.2.1]hept-5-yl)pyridine-3-sulfonyl]-4,4a,5,6,7,8-hexahydro-1H-1,2,6-triaza-cyclopenta[b]naphthalene], for which the results for the pKi in test [1] and in test [2] were less than 7.30 and less than 9.00, respectively.

As for `COC[C@]12Cc3cnn(-c4ccc(F)cc4)c3C=C1CCN(S(=O)(=O)c1ccc(C(F)(F)F)nc1)C2` [Example 24, (R)-1-(4-Fluorophenyl)-4a-methoxymethyl-6-(6-trifluoromethylpyridine-3-sulfonyl)-4,4a,5,6,7,8-hexahydro-1H-1,2,6-triaza-cyclopenta[b]naphthalene], the negative-log Ki (pKi) in test [1] is 7.30 to 8.00; in test [2] it was less than 9.00.

`O=S(=O)(c1ccc(N2CCCC2)nc1)N1CCC2=Cc3c(cnn3-c3ccc(F)cc3)C[C@]2(COCC2CC2)C1` [Example 25, (R)-4a-Cyclopropylmethoxymethyl-1-(4-fluorophenyl)-6-(6-pyrrolidin-1-yl-pyridine-3-sulfonyl)-4,4a,5,6,7,8-hexahydro-1H-1,2,6-triaza-cyclopenta[b]naphthalene]: the negative-log Ki (pKi) in test [1] was greater than 8.00; in test [2], 9.00 to 9.30.

As for `O=S(=O)(c1ccc(N2CC[C@@H](F)C2)nc1)N1CCC2=Cc3c(cnn3-c3ccc(F)cc3)C[C@]2(COCC2CC2)C1` [Example 26, (R)-4a-Cyclopropylmethoxymethyl-1-(4-fluorophenyl)-6-(6-((R)-3-fluoro-pyrrolidin-1-yl)-pyridine-3-sulfonyl)-4,4a,5,6,7,8-hexahydro-1H-1,2,6-triaza-cyclopenta[b]naphthalene], the values for the pKi in test [1] and in test [2] were greater than 8.00 and 9.00 to 9.30, respectively.

For the molecule `O=S(=O)(c1ccc(N2CC[C@H](F)C2)nc1)N1CCC2=Cc3c(cnn3-c3ccc(F)cc3)C[C@]2(COCC2CC2)C1` [Example 27, (R)-4a-Cyclopropylmethoxymethyl-1-(4-fluorophenyl)-6-(6-((S)-3-fluoropyrrolidin-1-yl)-pyridine-3-sulfonyl)-4,4a,5,6,7,8-hexahydro-1H-1,2,6-triaza-cyclopenta[b]naphthalene], the pKi is greater than 8.00 in test [1] and 9.00 to 9.30 in test [2].

As to `O=S(=O)(c1ccc(N2CC[C@@H](O)C2)nc1)N1CCC2=Cc3c(cnn3-c3ccc(F)cc3)C[C@]2(COCC2CC2)C1` [Example 28, (R)-1-{5-[(R)-4a-Cyclopropylmethoxymethyl-1-(4-fluorophenyl)-1,4,4a,5,6,7,8-hexahydro-1,2,6-triaza-cyclopenta[b]naphthalene-6-sulfonyl]pyridine-2-yl}-pyrrolidine-3-ol], the negative logarithm of the Ki (pKi) in test [1] was 7.30 to 8.00; in test [2], greater than 9.30.

As for `O=S(=O)(c1ccc(N2CC[C@H](O)C2)nc1)N1CCC2=Cc3c(cnn3-c3ccc(F)cc3)C[C@]2(COCC2CC2)C1` [Example 29, (S)-1-{5-[(R)-4a-Cyclopropylmethoxymethyl-1-(4-fluorophenyl)-1,4,4a,5,6,7,8-hexahydro-1,2,6-triaza-cyclopenta[b]naphthalene-6-sulfonyl]pyridine-2-yl}-pyrrolidine-3-ol], the results for the pKi in test [1] and in test [2] were 7.30 to 8.00 and 9.00 to 9.30, respectively.

As to `O=S(=O)(c1ccc(N2CC(F)C2)nc1)N1CCC2=Cc3c(cnn3-c3ccc(F)cc3)C[C@]2(COCC2CC2)C1` [Example 30, (R)-4a-Cyclopropylmethoxymethyl-6-[6-(3-fluoroazetin-1-yl)-pyridine-3-sulfonyl]-1-(4-fluorophenyl)-1,4,4a,5,6,7,8-hexahydro-1H-1,2,6-triaza-cyclopenta[b]naphthalene], the negative logarithm of the Ki (pKi) is greater than 8.00 in test [1] and greater than 9.30 in test [2].

For `O=S(=O)(c1ccc(N2CC(O)C2)nc1)N1CCC2=Cc3c(cnn3-c3ccc(F)cc3)C[C@]2(COCC2CC2)C1` [Example 31, 1-{5-[(R)-4a-Cyclopropylmethoxymethyl-1-(4-fluorophenyl)-1,4,4a,5,6,7,8-hexahydro-1,2,6-triaza-cyclopenta[b]naphthalene-6-sulfonyl]-pyridin-2-yl}-azetidin-3-ol], the pKi was 7.30 to 8.00 in test [1] and 9.00 to 9.30 in test [2].

Turning to `O=S(=O)(c1ccc(N2CCOCC2)nc1)N1CCC2=Cc3c(cnn3-c3ccc(F)cc3)C[C@]2(COCC2CC2)C1` [Example 32, (R)-4a-Cyclopropylmethoxymethyl-1-(4-fluorophenyl)-6-(6-morpholin-4-yl-pyridine-3-sulfonyl)-4,4a,5,6,7,8-hexahydro-1H-1,2,6-triaza-cyclopenta[b]naphthalene], the pKi in test [1] was greater than 8.00; in test [2] it was 9.00 to 9.30.

The values above are taken from US8598154B2 (Corcept Therapeutics, Inc., priority 2010, dated 2013).
